Data taken from patent US20260015358A1, “BICYCLIC DERIVATIVES, COMPOSITIONS AND USES THEREOF” (Danatlas Pharmaceuticals Co., Ltd., priority 2023, published 2026).

How the values were obtained:
[1] = molecular target: T1, WRN [UniPro: Q14191 (WRN_HUMAN), N500-C946] (Homo sapiens (Human), UniProt Q14191); assay: WRN ATPase assay (ADP-Glo); format: biochemical; settings: WRN enzymatic activity assay
[2] = molecular target: T1, WRN [UniPro: Q14191 (WRN_HUMAN), N500-C946]; assay: WRN unwinding assay (FORKF DNA, fluorescence); format: biochemical; settings: Table 14

T1 sequence (Q14191 500-946): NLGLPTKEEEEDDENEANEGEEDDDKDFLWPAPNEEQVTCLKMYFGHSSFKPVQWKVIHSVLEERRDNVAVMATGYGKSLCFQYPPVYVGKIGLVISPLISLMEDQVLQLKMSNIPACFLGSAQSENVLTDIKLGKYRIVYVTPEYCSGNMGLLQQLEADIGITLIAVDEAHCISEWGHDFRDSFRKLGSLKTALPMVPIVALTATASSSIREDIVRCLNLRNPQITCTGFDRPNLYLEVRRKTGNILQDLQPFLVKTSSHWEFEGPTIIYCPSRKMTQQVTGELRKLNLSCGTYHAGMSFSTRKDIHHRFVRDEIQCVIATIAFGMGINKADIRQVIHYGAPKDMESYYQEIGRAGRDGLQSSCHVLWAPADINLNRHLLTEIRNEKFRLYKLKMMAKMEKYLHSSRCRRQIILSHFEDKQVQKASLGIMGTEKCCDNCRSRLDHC

Compound | IC50 [1] [nM] | IC50 [2] [nM]
CCc1c(N2CCN(C(=O)CNC(=O)c3ccn(C)n3)CC2)c(=O)n2nc(C3=CCOCC3)nc2n1CC(=O)Nc1ccc(C(F)(F)F)cc1Cl [Example 102, N-(2-(4-(4-(2-((2-Chloro-4-(trifluoromethyl)phenyl)amino)-2-oxoethyl)-2-(3,6-dihydro-2H-pyran-4-yl)-5-ethyl-7-oxo-4,7-dihydro-[1,2,4]triazolo[1,5-a]pyrimidin-6-yl)piperazin-1-yl)-2-oxoethyl)-1-methyl-1H-pyrazole-3-carboxamide] | < 100 | < 100
CCc1c(N2CCN(C(=O)CNC(=O)c3cnn(C)c3)CC2)c(=O)n2nc(C3=CCOCC3)nc2n1CC(=O)Nc1ccc(C(F)(F)F)cc1Cl [Example 103, N-(2-(4-(4-(2-((2-Chloro-4-(trifluoromethyl)phenyl)amino)-2-oxoethyl)-2-(3,6-dihydro-2H-pyran-4-yl)-5-ethyl-7-oxo-4,7-dihydro-[1,2,4]triazolo[1,5-a]pyrimidin-6-yl)piperazin-1-yl)-2-oxoethyl)-1-methyl-1H-pyrazole-4-carboxamide] | < 100 | < 100
CCc1c(N2CCN(C(=O)CNC(=O)c3cccc(Cl)c3Cl)CC2)c(=O)n2nc(C3=CCOCC3)nc2n1CC(=O)Nc1ccc(C(F)(F)F)cc1Cl [Example 104, 2,3-Dichloro-N-(2-(4-(4-(2-((2-chloro-4-(trifluoromethyl)phenyl)amino)-2-oxoethyl)-2-(3,6-dihydro-2H-pyran-4-yl)-5-ethyl-7-oxo-4,7-dihydro-[1,2,4]triazolo[1,5-a]pyrimidin-6-yl)piperazin-1-yl)-2-oxoethyl)benzamide] | 100 to 1000 | < 100
CCc1c(N2CCN(C(=O)CNC(=O)c3csc(C)n3)CC2)c(=O)n2nc(C3=CCOCC3)nc2n1CC(=O)Nc1ccc(C(F)(F)F)cc1Cl [Example 105, N-(2-(4-(4-(2-((2-Chloro-4-(trifluoromethyl)phenyl)amino)-2-oxoethyl)-2-(3,6-dihydro-2H-pyran-4-yl)-5-ethyl-7-oxo-4,7-dihydro-[1,2,4]triazolo[1,5-a]pyrimidin-6-yl)piperazin-1-yl)-2-oxoethyl)-2-methylthiazole-4-carboxamide] | 100 to 1000 | < 100
CCc1c(N2CCN(C(=O)CNC(=O)c3ncc[nH]3)CC2)c(=O)n2nc(C3=CCOCC3)nc2n1CC(=O)Nc1ccc(C(F)(F)F)cc1Cl [Example 106, N-(2-(4-(4-(2-((2-Chloro-4-(trifluoromethyl)phenyl)amino)-2-oxoethyl)-2-(3,6-dihydro-2H-pyran-4-yl)-5-ethyl-7-oxo-4,7-dihydro-[1,2,4]triazolo[1,5-a]pyrimidin-6-yl)piperazin-1-yl)-2-oxoethyl)-1H-imidazole-2-carboxamide] | 100 to 1000 | < 100
CCc1c(N2CCN(C(=O)CNC(=O)c3cc(C)on3)CC2)c(=O)n2nc(C3=CCOCC3)nc2n1CC(=O)Nc1ccc(C(F)(F)F)cc1Cl [Example 107, N-(2-(4-(4-(2-((2-Chloro-4-(trifluoromethyl)phenyl)amino)-2-oxoethyl)-2-(3,6-dihydro-2H-pyran-4-yl)-5-ethyl-7-oxo-4,7-dihydro-[1,2,4]triazolo[1,5-a]pyrimidin-6-yl)piperazin-1-yl)-2-oxoethyl)-5-methylisoxazole-3-carboxamide] | < 100 | < 100
CCc1c(N2CCN(C(=O)CNC(=O)c3c[nH][nH]c3=O)CC2)c(=O)n2nc(C3=CCOCC3)nc2n1CC(=O)Nc1ccc(C(F)(F)F)cc1Cl [Example 108, N-(2-(4-(4-(2-((2-Chloro-4-(trifluoromethyl)phenyl)amino)-2-oxoethyl)-2-(3,6-dihydro-2H-pyran-4-yl)-5-ethyl-7-oxo-4,7-dihydro-[1,2,4]triazolo[1,5-a]pyrimidin-6-yl)piperazin-1-yl)-2-oxoethyl)-3-oxo-2,3-dihydro-1H-pyrazole-4-carboxamide] | < 100 | < 100
CCc1c(N2CCN(C(=O)CNC(=O)c3cnn4cccc4c3O)CC2)c(=O)n2nc(C3=CCOCC3)nc2n1CC(=O)Nc1ccc(C(F)(F)F)cc1Cl [Example 109, N-(2-(4-(4-(2-((2-Chloro-4-(trifluoromethyl)phenyl)amino)-2-oxoethyl)-2-(3,6-dihydro-2H-pyran-4-yl)-5-ethyl-7-oxo-4,7-dihydro-[1,2,4]triazolo[1,5-a]pyrimidin-6-yl)piperazin-1-yl)-2-oxoethyl)-4-hydroxypyrrolo[1,2-b]pyridazine-3-carboxamide] | < 100 | < 100
CCc1c(N2CCN(C(=O)CNC(=O)c3cccnc3)CC2)c(=O)n2nc(C3=CCOCC3)nc2n1CC(=O)Nc1ccc(C(F)(F)F)cc1Cl [Example 110, N-(2-(4-(4-(2-((2-Chloro-4-(trifluoromethyl)phenyl)amino)-2-oxoethyl)-2-(3,6-dihydro-2H-pyran-4-yl)-5-ethyl-7-oxo-4,7-dihydro-[1,2,4]triazolo[1,5-a]pyrimidin-6-yl)piperazin-1-yl)-2-oxoethyl)nicotinamide] | < 100 | < 100
CCc1c(N2CCN(C(=O)CNC(=O)c3ccccc3Cl)CC2)c(=O)n2nc(C3=CCOCC3)nc2n1CC(=O)Nc1ccc(C(F)(F)F)cc1Cl [Example 111, 2-Chloro-N-(2-(4-(4-(2-((2-chloro-4-(trifluoromethyl)phenyl)amino)-2-oxoethyl)-2-(3,6-dihydro-2H-pyran-4-yl)-5-ethyl-7-oxo-4,7-dihydro-[1,2,4]triazolo[1,5-a]pyrimidin-6-yl)piperazin-1-yl)-2-oxoethyl)benzamide] | < 100 | < 100

Other lines, results leading:

IC50 [1] [nM] | IC50 [2] [nM] | Compound
< 100 | < 100 | CCc1c(N2CCN(C(=O)CNC(=O)c3ccccc3OC)CC2)c(=O)n2nc(C3=CCOCC3)nc2n1CC(=O)Nc1ccc(C(F)(F)F)cc1Cl [Example 112, N-(2-(4-(4-(2-((2-Chloro-4-(trifluoromethyl)phenyl)amino)-2-oxoethyl)-2-(3,6-dihydro-2H-pyran-4-yl)-5-ethyl-7-oxo-4,7-dihydro-[1,2,4]triazolo[1,5-a]pyrimidin-6-yl)piperazin-1-yl)-2-oxoethyl)-2-methoxybenzamide]
< 100 | < 100 | CCc1c(N2CCN(C(=O)CNC(=O)c3ccccc3Br)CC2)c(=O)n2nc(C3=CCOCC3)nc2n1CC(=O)Nc1ccc(C(F)(F)F)cc1Cl [Example 113, 2-Bromo-N-(2-(4-(4-(2-((2-chloro-4-(trifluoromethyl)phenyl)amino)-2-oxoethyl)-2-(3,6-dihydro-2H-pyran-4-yl)-5-ethyl-7-oxo-4,7-dihydro-[1,2,4]triazolo[1,5-a]pyrimidin-6-yl)piperazin-1-yl)-2-oxoethyl)benzamide]
< 100 | < 100 | CCc1c(N2CCN(C(=O)CNC(=O)c3ccnn3C)CC2)c(=O)n2nc(C3=CCOCC3)nc2n1CC(=O)Nc1ccc(C(F)(F)F)cc1Cl [Example 114, N-(2-(4-(4-(2-((2-Chloro-4-(trifluoromethyl)phenyl)amino)-2-oxoethyl)-2-(3,6-dihydro-2H-pyran-4-yl)-5-ethyl-7-oxo-4,7-dihydro-[1,2,4]triazolo[1,5-a]pyrimidin-6-yl)piperazin-1-yl)-2-oxoethyl)-1-methyl-1H-pyrazole-5-carboxamide]
< 100 | < 100 | CCc1c(N2CCN(C(=O)CNC(=O)c3cc(F)cc(F)c3)CC2)c(=O)n2nc(C3=CCOCC3)nc2n1CC(=O)Nc1ccc(C(F)(F)F)cc1Cl [Example 115, N-(2-(4-(4-(2-((2-Chloro-4-(trifluoromethyl)phenyl)amino)-2-oxoethyl)-2-(3,6-dihydro-2H-pyran-4-yl)-5-ethyl-7-oxo-4,7-dihydro-[1,2,4]triazolo[1,5-a]pyrimidin-6-yl)piperazin-1-yl)-2-oxoethyl)-3,5-difluorobenzamide]
< 100 | < 100 | CCc1c(N2CCN(C(=O)CNC(=O)c3cccc(F)c3F)CC2)c(=O)n2nc(C3=CCOCC3)nc2n1CC(=O)Nc1ccc(C(F)(F)F)cc1Cl [Example 116, N-(2-(4-(4-(2-((2-Chloro-4-(trifluoromethyl)phenyl)amino)-2-oxoethyl)-2-(3,6-dihydro-2H-pyran-4-yl)-5-ethyl-7-oxo-4,7-dihydro-[1,2,4]triazolo[1,5-a]pyrimidin-6-yl)piperazin-1-yl)-2-oxoethyl)-2,3-difluorobenzamide]
< 100 | < 100 | CCc1c(N2CCN(C(=O)CNC(=O)c3ccc(F)cc3F)CC2)c(=O)n2nc(C3=CCOCC3)nc2n1CC(=O)Nc1ccc(C(F)(F)F)cc1Cl [Example 117, N-(2-(4-(4-(2-((2-Chloro-4-(trifluoromethyl)phenyl)amino)-2-oxoethyl)-2-(3,6-dihydro-2H-pyran-4-yl)-5-ethyl-7-oxo-4,7-dihydro-[1,2,4]triazolo[1,5-a]pyrimidin-6-yl)piperazin-1-yl)-2-oxoethyl)-2,4-difluorobenzamide]
< 100 | < 100 | CCc1c(N2CCN(C(=O)CNC(=O)c3cc(F)ccc3F)CC2)c(=O)n2nc(C3=CCOCC3)nc2n1CC(=O)Nc1ccc(C(F)(F)F)cc1Cl [Example 118, N-(2-(4-(4-(2-((2-Chloro-4-(trifluoromethyl)phenyl)amino)-2-oxoethyl)-2-(3,6-dihydro-2H-pyran-4-yl)-5-ethyl-7-oxo-4,7-dihydro-[1,2,4]triazolo[1,5-a]pyrimidin-6-yl)piperazin-1-yl)-2-oxoethyl)-2,5-difluorobenzamide]
< 100 | < 100 | CCc1c(N2CCN(C(=O)CNC(=O)c3ccc(OC)cc3)CC2)c(=O)n2nc(C3=CCOCC3)nc2n1CC(=O)Nc1ccc(C(F)(F)F)cc1Cl [Example 119, N-(2-(4-(4-(2-((2-Chloro-4-(trifluoromethyl)phenyl)amino)-2-oxoethyl)-2-(3,6-dihydro-2H-pyran-4-yl)-5-ethyl-7-oxo-4,7-dihydro-[1,2,4]triazolo[1,5-a]pyrimidin-6-yl)piperazin-1-yl)-2-oxoethyl)-4-methoxybenzamide]
